The assay has as its target BTK (Homo sapiens, UniProt Q06187). In words: biochemical. Conditions: read-out: BTK inhibition (%), 0.75 uM BTK, […] probe 3l, 15 min preincubation.

*1 amine or outer side, *2 acyl side, *3 side chain or, on linkers, in order; H or OH if unused. Where a SMILES comes first, the peptide text is derived from it. Bridges are numbered along the chain shown (N, C = ends). [ ]: non-standard residue; d: D form. The star is where a group is joined. pTerphenylCO(4''-OnC5H11) = CCCCCOc1ccc(-c2ccc(-c3ccc(C(=O)*)cc3)cc2)cc1; Orn(4R-OH,5R-OH) = O=C([C@H](C[C@@H](O)[C@@H](O)N[*:3])N[*:1])[*:2]; hTyr(3S-OH,4S-OH) = N[C@H](C(=O)O)[C@H](O)[C@@H](O)c1ccc(O)cc1; Pro(3S-OH,4S-Me) = C[C@H]1CN[C@H](C(=O)O)[C@H]1O; Hyp = O=C(O)[C@@H]1C[C@@H](O)CN1

Chain of BTK (Q06187 402-655 limits assumed): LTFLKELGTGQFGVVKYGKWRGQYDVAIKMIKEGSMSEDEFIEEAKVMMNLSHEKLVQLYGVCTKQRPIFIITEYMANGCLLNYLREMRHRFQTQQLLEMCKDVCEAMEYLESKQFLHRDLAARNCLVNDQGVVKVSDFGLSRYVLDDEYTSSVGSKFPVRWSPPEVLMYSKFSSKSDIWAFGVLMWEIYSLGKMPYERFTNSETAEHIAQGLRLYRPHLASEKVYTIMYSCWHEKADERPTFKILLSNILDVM

Consider `COc1ccc2cc1Oc1ccc(cc1)C[C@H]1c3c(cc4c(c3Oc3cc5c(cc3OC)CCN(C)[C@@H]5C2)OCO4)CCN1C` [PCM-0214760], for which the inhibition (in general, the drop in the measured response relative to a control, in per cent) at 10 µM is 30.4%.

Take `CC(=O)OCC(=O)[C@H]1CC[C@H]2[C@@H]3CCC4=CC(=O)CC[C@]4(C)[C@H]3CC[C@]12C` [PCM-0214761]: the inhibition at 10 µM was -11.7%. For the compound `CC[C@H]1OC(=O)[C@H](C)[C@@H](O[C@H]2C[C@@](C)(OC)[C@@H](O)[C@H](C)O2)[C@H](C)[C@@H](O[C@@H]2O[C@H](C)C[C@H](N(C)C)[C@H]2O)[C@](C)(O)C[C@@H](C)[C@@H]2N[C@@H](COCCOC)O[C@H]([C@H]2C)[C@]1(C)O` [PCM-0214762], the inhibition at 10 µM was -10.9%. Then `CCCCCCCCCCCC[N+](C)(C)CCOc1ccccc1` [PCM-0214763], with -14.8%; and `CC(O)=C(C#N)C(=O)Nc1ccc(C(F)(F)F)cc1` [PCM-0214764], with 0%.

As for `C=C[C@]1(C)C[C@@H](OC(=O)CSC(C)(C)CNC(=O)[C@H](N)C(C)C)[C@]2(C)[C@H](C)CC[C@]3(CCC(=O)[C@H]32)[C@@H](C)[C@@H]1O` [PCM-0214765], the inhibition at 10 µM amounted to 20.2%. The result for `C=CC(=O)N1C/C(=C\c2ccc([N+](=O)[O-])cc2)C(=O)/C(=C/c2ccc([N+](=O)[O-])cc2)C1` [PCM-0214766] reads -15.6%. Take `CCCC(=O)O[C@]1(C(=O)COC(C)=O)CC[C@H]2[C@@H]3C[C@H](F)C4=CC(=O)C=C[C@]4(C)[C@@]3(F)[C@@H](O)C[C@@]21C` [PCM-0214767]: the inhibition at 10 µM is -3.4%.

For `CCC(=O)O[C@]1(C(=O)CCl)[C@@H](C)C[C@H]2[C@@H]3C[C@H](F)C4=CC(=O)C=C[C@]4(C)[C@@]3(F)[C@@H](O)C[C@@]21C` [PCM-0214768], the inhibition at 10 µM is 22.8%. Then `CC(C)NC[C@H](O)COc1ccc(CCOCC2CC2)cc1` [PCM-0214769], with 0.8%; and `OCC(CO)N[C@H]1C[C@](O)(CO)[C@@H](O)[C@H](O)[C@H]1O` [PCM-0214770], with -8.6%. `CC1(C)S[C@@H]2[C@H](NC(=O)Cc3ccccc3)C(=O)N2[C@H]1C(=O)O` [PCM-0214771]: the inhibition at 10 µM is -10.1%. On to `CC(C)(C)C1CCC(CC2=C(O)c3ccccc3C(=O)C2=O)CC1` (stereo not shown) [PCM-0214772], for which the inhibition at 10 µM amounted to 3.1%.

Regarding `OC[C@@H](O)[C@@H](O)CO` [PCM-0214773], the inhibition at 10 µM worked out at 7.8%.

Regarding `CCc1c(Cl)c(O)c(Cl)c(O)c1C(=O)O[C@H]1[C@H](O)[C@H](OC)[C@H](OC/C2=C\C=C\C[C@H](O)/C(C)=C/[C@H](CC)[C@@H](O[C@@H]3OC(C)(C)[C@@H](OC(=O)C(C)C)[C@H](O)[C@@H]3O)/C(C)=C/C(C)=C/C[C@@H]([C@@H](C)O)OC2=O)O[C@@H]1C` [PCM-0214774], the inhibition at 10 µM was determined as 45.9%. Then `O[C@@H]1CO[C@H]2[C@@H]1OC[C@@H]2O` [PCM-0214776], with -3.9%. Then `Nc1c(CC(=O)O)cccc1C(=O)c1ccc(Br)cc1` [PCM-0214777], with -47.6%; and `CCOC(=O)C1=C(N)Oc2ccc(Br)cc2C1C(C#N)C(=O)OCC` (stereo not shown) [PCM-0214778], with 15.6%; and `O=c1c(-c2ccc(O)cc2)coc2cc(O[C@@H]3O[C@H](CO)[C@@H](O)[C@H](O)[C@H]3O)ccc12` [PCM-0214779], with 10.9%. Then `Cc1c(Cc2ccc3ccccc3n2)c2cc(F)ccc2n1CC(=O)O` [PCM-0214780], with 8.6%. Consider `O=c1ncn2nc(Sc3ccc(F)cc3F)ccc2c1-c1c(Cl)cccc1Cl` [PCM-0214781], for which the inhibition at 10 µM came out at 40%.

Consider `C[C@H](Cc1cc2c(c(C(N)=O)c1)N(CCCO)CC2)NCCOc1ccccc1OCC(F)(F)F` [PCM-0214784], for which the inhibition at 10 µM was -12.5%.

Consider `CC(C)OC(=O)[C@H](C)N[P@](=O)(OC[C@H]1O[C@@H](n2ccc(=O)[nH]c2=O)[C@](C)(F)[C@@H]1O)Oc1ccccc1` [PCM-0214785], for which the inhibition at 10 µM is 13.2%.

As to `Cc1cc(C)cc(NC(=O)Cc2ccc(OC(C)(C)C(=O)O)cc2)c1` [PCM-0214786], the inhibition at 10 µM was -2.3%. Then `CC(C)(Oc1ccc(Cl)cc1)C(=O)OCCOC(=O)c1cccnc1` [PCM-0214787], with -6.2%; and `N#C/C(=C1/SC[C@@H](c2ccc(Cl)cc2Cl)S1)n1ccnc1` [PCM-0214788], with 3.9%.

Take `CC(CNC(=O)c1cccnc1)NC(=O)c1cccnc1` (stereo not shown) [PCM-0214789]: the inhibition at 10 µM is -8.6%.

Regarding `CC1(C)CCC(C)(C)c2cc(NC(=O)c3ccc(C(=O)O)cc3)ccc21` [PCM-0214790], the inhibition at 10 µM is -18.7%. Then `CCC[C@H](NC(=O)[C@@H]1[C@H]2CCC[C@H]2CN1C(=O)[C@@H](NC(=O)[C@@H](NC(=O)c1cnccn1)C1CCCCC1)C(C)(C)C)C(=O)C(=O)NC1CC1` [PCM-0214791], with -3.1%; and `CCC1=C[C@@H]2CN(C1)Cc1c([nH]c3ccccc13)[C@@](C(=O)OC)(c1cc3c(cc1OC)N(C)[C@H]1[C@@](O)(C(=O)OC)[C@H](OC(C)=O)[C@]4(CC)C=CCN5CC[C@]31[C@@H]54)C2` [PCM-0214792], with 14%; and `CN(C)CCCCC(=O)Nc1ccc(NC(=S)NC(=O)c2ccc(C(C)(C)C)cc2)cc1` [PCM-0214793], with 7%. Then `CC[C@]1(O)C[C@H]2CN(CCc3c([nH]c4ccccc34)[C@@](C(=O)OC)(c3cc4c(cc3OC)N(C=O)[C@H]3[C@@](O)(C(=O)OC)[C@H](OC(C)=O)[C@]5(CC)C=CCN6CC[C@]43[C@@H]65)C2)C1` [PCM-0214794], with 9%. The result for `COc1cc(F)c(F)c(Nc2ccc(I)cc2F)c1NS(=O)(=O)C1(C[C@H](O)CO)CC1` [PCM-0214795] reads 36.6%; that for `OCCOc1ccc(/C(=C(/CCCl)c2ccccc2)c2ccccc2)cc1` [PCM-0214796], 73.9%. Consider `CCN(CC)CCOC(=O)c1ccc(N)cc1Cl` [PCM-0214797], for which the inhibition at 10 µM is -1.6%.

As to `CCCCCOc1ccc(-c2ccc(-c3ccc(C(=O)N[C@H]4C[C@@H](O)[C@@H](O)NC(=O)[C@@H]5[C@@H](O)[C@@H](C)CN5C(=O)[C@H]([C@@H](C)O)NC(=O)[C@H]([C@H](O)[C@@H](O)c5ccc(O)cc5)NC(=O)[C@@H]5C[C@@H](O)CN5C(=O)[C@H]([C@@H](C)O)NC4=O)cc3)cc2)cc1` [PCM-0214798] ({pTerphenylCO(4''-OnC5H11)}-[Orn(4R-OH,5R-OH)]T[Hyp][hTyr(3S-OH,4S-OH)]T[Pro(3S-OH,4S-Me)]; lactam 1-C), the inhibition at 10 µM is 122%.

As for `CCCN(CCc1cccs1)[C@H]1CCc2c(O)cccc2C1` [PCM-0214799], the inhibition at 10 µM was found to be 14.8%. Then `Cc1ccc(Cl)c(Nc2ccccc2C(=O)O)c1Cl` [PCM-0214800], with 9.7%. Then `O[C@@H](c1cc(C(F)(F)F)nc2c(C(F)(F)F)cccc12)[C@H]1CCCCN1` [PCM-0214801], with -4.7%.

In the case of `O=C(O)CCCN1CCC(O[C@@H](c2ccc(Cl)cc2)c2ccccn2)CC1` [PCM-0214802], the inhibition at 10 µM was -17.9%. Then `C[C@@H](O[C@H]1OCCN(Cc2nn(P(=O)(O)O)c(=O)[nH]2)[C@H]1c1ccc(F)cc1)c1cc(C(F)(F)F)cc(C(F)(F)F)c1` [PCM-0214804], with 10.1%; and `C=CC[C@@H]1/C=C(\C)C[C@H](C)C[C@H](OC)[C@H]2O[C@@](O)(C(=O)C(=O)N3CCCC[C@H]3C(=O)O[C@H](/C(C)=C/[C@@H]3CC[C@@H](O)[C@H](OC)C3)[C@H](C)[C@@H](O)CC1=O)[C@H](C)C[C@@H]2OC` [PCM-0214806], with -2.8%. As for `NCc1c[nH]c(=S)n1[C@@H]1CCc2c(F)cc(F)cc2C1` [PCM-0214808], the inhibition at 10 µM came to 4.7%. For the compound `CCCCN1CCCC[C@H]1C(=O)Nc1c(C)cccc1C` [PCM-0214809], the inhibition at 10 µM is -25.7%. In the case of `OC[C@H]1O[C@@H](O[C@@H]2[C@@H](CO)O[C@](O)(CO)[C@H]2O)[C@H](O)[C@@H](O)[C@H]1O` [PCM-0214810], the inhibition at 10 µM was determined as 13.2%. Then `N[C@@H](CC(=O)N1CCn2c(nnc2C(F)(F)F)C1)Cc1cc(F)c(F)cc1F` [PCM-0214812], with -1.6%; and `CC(C)(CO)[C@@H](O)C(=O)NCCC(=O)O` [PCM-0214814], with 7%; and `CC(=O)NC(CC(C)C)C(=O)O` (stereo not shown) [PCM-0214817], with 1.6%. As for `CC1(C)[C@@H]2CC[C@@]1(C)C(=O)C2` [PCM-0214819], the inhibition at 10 µM was determined as 1.6%. The result for `CC12CCC(CC1=O)C2(C)C` (stereo not shown) [PCM-0214819] reads -3.9%; that for `CC(=O)OCC1=C(C(=O)O)N2C(=O)[C@@H](NC(=O)Cc3cccs3)[C@H]2SC1` [PCM-0214820], -12.5%.

Regarding `CN1CCC(=C2c3ccccc3CCn3c(C=O)cnc32)CC1` [PCM-0214821], the inhibition at 10 µM was 2.1%.

Regarding `O=c1ccc2ccc(OCCCCN3CCN(c4cccc5sccc45)CC3)cc2[nH]1` [PCM-0214822], the inhibition at 10 µM amounted to 0.8%. Then `O=C(O)CSc1nnc(Br)n1-c1ccc(C2CC2)c2ccccc12` [PCM-0214823], with -21.8%; and `C#C[C@]1(O)CC[C@H]2[C@@H]3CCC4=CCCC[C@@H]4[C@H]3C(=C)C[C@@]21CC` [PCM-0214824], with 27.2%. On to `COc1cc(O)c(C(=O)c2ccccc2)cc1S(=O)(=O)O` [PCM-0214826], for which the inhibition at 10 µM is -1.6%. With `CO/N=C(\C(=O)N[C@@H]1C(=O)N2C(C(=O)O)=C(CSc3nnnn3C)CS[C@H]12)c1csc(N)n1` [PCM-0214827], the inhibition at 10 µM was 8.6%. Then `Cn1nnc(-c2ccc(-c3ccc(N4C[C@H](COP(=O)(O)O)OC4=O)cc3F)cn2)n1` [PCM-0214830], with 13.2%; and `CCCCCC(=O)O[C@]1(C(C)=O)CC[C@H]2[C@@H]3CCC4=CC(=O)CC[C@]4(C)[C@H]3CC[C@@]21C` [PCM-0214832], with -23.3%. Then `Cc1ccsc1C(=CCCN1CCC[C@@H](C(=O)O)C1)c1sccc1C` [PCM-0214833], with -7%; and `CC(C)C(=O)OCC(=O)[C@@]12O[C@H](C3CCCCC3)O[C@@H]1C[C@H]1[C@@H]3CCC4=CC(=O)C=C[C@]4(C)[C@H]3[C@@H](O)C[C@@]12C` [PCM-0214834], with -6.9%.

(Values after paper PMC8041284, “Tunable Methacrylamides for Covalent Ligand Directed Release Chemistry” (Journal of the American Chemical Society, 2021).)
